Laboratory results reported in patent US10364238B2, “N-((het) arylmethyl)-heteroaryl-carboxamides compounds as plasma kallikrein inhibitors” (KALVISTA PHARMACEUTICALS LIMITED, priority 2014, dated 2019).

Legend:
Type in all cases: biochemical
Human plasma kallikrein = Human plasma kallikrein (Homo sapiens (Human), UniProt P03952); assay: Determination of the IC50 for plasma kallikrein; conditions: 25° C., fluorogenic substrate H-DPro-Phe-Arg-AFC; read-out: IC50 (human PKaI)
Procedure: Determination of the IC50 for Plasma Kallikrein
(§1) Human plasma kallikrein (Protogen) was incubated at 25° C. with the fluorogenic substrate H-DPro-Phe-Arg-AFC and various concentrations of the test compound. Residual enzyme activity (initial rate of reaction) was determined by measuring the change in […] at 410 nm and the IC50 value for the test compound was determined.

Human KLK1 = Human KLK1 (Homo sapiens (Human), UniProt P06870); assay: Determination of the IC50 for KLK1; conditions: 25° C., fluorogenic substrate H-DVal-Leu-Arg-AFC
Procedure: Determination of the IC50 for KLK1
as §1, with “KLK1 (Callbiochem)” for “plasma kallikrein (Protogen)”, “H-DVal-Leu-Arg-AFC” for “H-DPro-Phe-Arg-AFC”

Human FXIa = Human FXIa (Homo sapiens (Human), UniProt P03951); assay: Determination of the % inhibition for FXIa; conditions: 40 μM test compound, 25° C., substrate Z-Gly-Pro-Arg-AFC
Procedure: Determination of the % Inhibition for FXIa
Human FXIa (Enzyme Research Laboratories) was incubated at 25° C. with the fluorogenic substrate Z-Gly-Pro-Arg-AFC and 40 μM of the test compound. Residual enzyme activity (initial rate of reaction) was determined by measuring the change in […].

Sequence of Human FXIa (P03951 388-625): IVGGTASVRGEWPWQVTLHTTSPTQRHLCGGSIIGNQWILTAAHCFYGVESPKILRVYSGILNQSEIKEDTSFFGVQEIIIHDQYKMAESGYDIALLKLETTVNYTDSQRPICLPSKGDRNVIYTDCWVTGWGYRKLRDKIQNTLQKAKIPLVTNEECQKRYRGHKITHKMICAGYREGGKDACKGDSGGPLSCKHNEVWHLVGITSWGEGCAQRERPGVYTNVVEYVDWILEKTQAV
Sequence of Human FXIa (P03951 19-387 partner): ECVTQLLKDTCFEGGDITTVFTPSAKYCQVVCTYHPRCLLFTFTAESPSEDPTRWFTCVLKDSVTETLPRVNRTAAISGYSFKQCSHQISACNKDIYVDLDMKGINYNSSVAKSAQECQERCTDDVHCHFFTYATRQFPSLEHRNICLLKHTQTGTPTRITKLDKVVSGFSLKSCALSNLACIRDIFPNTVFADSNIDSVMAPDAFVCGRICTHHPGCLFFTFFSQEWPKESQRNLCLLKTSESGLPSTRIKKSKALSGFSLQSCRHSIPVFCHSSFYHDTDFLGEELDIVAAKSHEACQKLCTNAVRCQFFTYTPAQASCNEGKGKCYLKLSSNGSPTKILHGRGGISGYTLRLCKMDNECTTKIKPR
Sequence of Human KLK1 (P06870 25-262): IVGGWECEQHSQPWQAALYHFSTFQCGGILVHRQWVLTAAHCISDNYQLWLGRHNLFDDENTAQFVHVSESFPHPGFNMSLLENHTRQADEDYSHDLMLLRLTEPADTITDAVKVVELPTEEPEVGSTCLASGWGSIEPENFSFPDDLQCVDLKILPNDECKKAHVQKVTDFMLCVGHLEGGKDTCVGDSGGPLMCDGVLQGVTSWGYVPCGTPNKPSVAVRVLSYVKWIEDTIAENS
Sequence of Human plasma kallikrein (P03952 391-638): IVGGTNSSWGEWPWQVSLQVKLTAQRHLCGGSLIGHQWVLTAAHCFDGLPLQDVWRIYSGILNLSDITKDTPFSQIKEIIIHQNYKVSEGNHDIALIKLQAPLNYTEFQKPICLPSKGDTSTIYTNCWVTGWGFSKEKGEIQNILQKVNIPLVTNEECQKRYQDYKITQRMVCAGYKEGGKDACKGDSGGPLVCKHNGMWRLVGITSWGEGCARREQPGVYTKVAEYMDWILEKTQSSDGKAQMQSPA
Sequence of Human plasma kallikrein (P03952 20-390 partner): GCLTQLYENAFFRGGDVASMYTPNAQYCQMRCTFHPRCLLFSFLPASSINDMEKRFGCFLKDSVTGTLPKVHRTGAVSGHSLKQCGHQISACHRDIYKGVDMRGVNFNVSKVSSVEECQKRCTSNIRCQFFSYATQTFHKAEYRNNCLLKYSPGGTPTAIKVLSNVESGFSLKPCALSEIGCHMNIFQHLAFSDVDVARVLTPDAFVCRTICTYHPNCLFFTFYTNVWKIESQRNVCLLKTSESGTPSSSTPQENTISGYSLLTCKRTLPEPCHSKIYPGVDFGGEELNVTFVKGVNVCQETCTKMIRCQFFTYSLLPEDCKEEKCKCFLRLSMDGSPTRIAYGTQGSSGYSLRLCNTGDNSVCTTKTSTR

Work on `COCc1nn(Cc2ccc(Cn3ccccc3=O)cc2)cc1C(=O)NCc1cc(OC)cc(OC)c1` [Example 1, N-(3,5-Dimethoxybenzyl)-3-(methoxymethyl)-1-(4-((2-oxopyridin-1(2H)-yl)methyl)benzyl)-1H-pyrazole-4-carboxamide] yielded an IC50 (Human plasma kallikrein) of 698 nM, an IC50 (Human KLK1) of over 10000 nM and an inhibition at 40 µM (Human FXIa) of 0%.
Compound `COCc1nn(Cc2cnc3cc(Cl)ccc3c2)cc1C(=O)NCc1cccc(OC)c1F` [Example 3, 1-(7-Chloro-quinolin-3-ylmethyl)-3-methoxymethyl-1H-pyrazole-4-carboxylic acid 2-fluoro-3-methoxy-benzylamide] has an IC50 (Human plasma kallikrein) of 2580 nM, an IC50 (Human KLK1) of over 10000 nM and an inhibition at 40 µM (Human FXIa) of 3%.
In the case of `CCOc1cccc(CNC(=O)c2cn(Cc3ccc(Cn4cc(C)cn4)cc3)nc2C(F)(F)F)c1` [Example 6, N-[(3-ethoxyphenyl)methyl]-1-({4-[(4-methylpyrazol-1-yl)methyl]phenyl}methyl)-3-(trifluoromethyl)pyrazole-4-carboxamide], the inhibition at 40 µM (Human FXIa) is reported as 0%.
Work on `COCc1nn(Cc2ccc(Cn3ccccc3=O)cc2)cc1C(=O)NCc1cccnc1C(F)(F)F` [Example 36, 3-(methoxymethyl)-1-({4-[(2-oxopyridin-1-yl)methyl]phenyl}methyl)-N-{[2-(trifluoromethyl)pyridin-3-yl]methyl}pyrazole-4-carboxamide] yielded an IC50 (Human plasma kallikrein) of 4170 nM, an IC50 (Human KLK1) of over 10000 nM and an inhibition at 40 µM (Human FXIa) of 0%.
`COCc1nn(Cc2ccc(Cn3ccccc3=O)cc2)cc1C(=O)NCc1cnccc1C(F)(F)F` [Example 37, 3-(methoxymethyl)-1-({4-[(2-oxopyridin-1-yl)methyl]phenyl}methyl)-N-{[4-(trifluoromethyl)pyridin-3-yl]methyl}pyrazole-4-carboxamide] showed an inhibition at 40 µM (Human FXIa) of 0%.
`COCc1nn(Cc2ccc(Cn3ccccc3=O)cc2)cc1C(=O)NCc1ccc(C)nc1` [Example 39, 3-(methoxymethyl)-N-[(6-methylpyridin-3-yl)methyl]-1-({4-[(2-oxopyridin-1-yl)methyl]phenyl}methyl)pyrazole-4-carboxamide] gave an inhibition at 40 µM (Human FXIa) of 0%.
Work on `COCc1nn(Cc2ccc(Cn3ccccc3=O)cc2)cc1C(=O)NCc1cccc(OC)n1` [Example 40, 3-(methoxymethyl)-N-[(6-methoxypyridin-2-yl)methyl]-1-({4-[(2-oxopyridin-1-yl)methyl]phenyl}methyl)pyrazole-4-carboxamide] yielded an IC50 (Human plasma kallikrein) of 3700 nM, an IC50 (Human KLK1) of over 10000 nM and an inhibition at 40 µM (Human FXIa) of 1%.
For `COCc1nn(Cc2ccc(Cn3ccccc3=O)cc2)cc1C(=O)NCc1nc(OC)ccc1F` [Example 42, N-[(3-fluoro-6-methoxypyridin-2-yl)methyl]-3-(methoxymethyl)-1-({4-[(2-oxopyridin-1-yl)methyl]phenyl}methyl)pyrazole-4-carboxamide], the IC50 (Human plasma kallikrein) was 831 nM, the IC50 (Human KLK1) was over 10000 nM and the inhibition at 40 µM (Human FXIa) was 1%.
`NC(=O)c1ccccc1CNC(=O)c1cn(Cc2ccc(Cn3ccccc3=O)cc2)nc1C1CC1` [Example 48, N-[(2-carbamoylphenyl)methyl]-3-cyclopropyl-1-({4-[(2-oxopyridin-1-yl)methyl]phenyl}methyl)pyrazole-4-carboxamide] was tested, and the IC50 (Human plasma kallikrein) was 647 nM, the IC50 (Human KLK1) was over 10000 nM and the inhibition at 40 µM (Human FXIa) was 2%.
For `NC(=O)c1cccc(CNC(=O)c2cn(Cc3ccc(Cn4ccccc4=O)cc3)nc2C2CC2)c1` [Example 49, N-[(3-carbamoylphenyl)methyl]-3-cyclopropyl-1-({4-[(2-oxopyridin-1-yl)methyl]phenyl}methyl)pyrazole-4-carboxamide], the IC50 (Human plasma kallikrein) was 5450 nM, the IC50 (Human KLK1) was over 10000 nM and the “% Inhibition @ 40 μM (human FXIa)” value (Human FXIa) was 0%.
In the case of `NC(=O)c1ccc(CNC(=O)c2cn(Cc3ccc(Cn4ccccc4=O)cc3)nc2C2CC2)cc1` [Example 50, N-[(4-carbamoylphenyl)methyl]-3-cyclopropyl-1-({4-[(2-oxopyridin-1-yl)methyl]phenyl}methyl)pyrazole-4-carboxamide], the IC50 (Human plasma kallikrein) is reported as 1800 nM and the IC50 (Human KLK1) is reported as over 10000 nM.
`COc1cccc(CNC(=O)c2cn(Cc3ccc(Cn4ccccc4=O)cc3)nc2C2CC2)c1F` [Example 52, 3-cyclopropyl-N-[(2-fluoro-3-methoxyphenyl)methyl]-1-({4-[(2-oxopyridin-1-yl)methyl]phenyl}methyl)pyrazole-4-carboxamide] was tested, and the IC50 (Human plasma kallikrein) was 23.3 nM, the IC50 (Human KLK1) was over 40000 nM and the “% Inhibition @ 40 μM (human FXIa)” value (Human FXIa) was 1%.
`COCc1nn(Cc2ccc(Cn3ccccc3=O)cc2)cc1C(=O)NCc1c(OC)ccc(OC)c1F` [Example 54, N-[(2-fluoro-3,6-dimethoxyphenyl)methyl]-3-(methoxymethyl)-1-({4-[(2-oxopyridin-1-yl)methyl]phenyl}methyl)pyrazole-4-carboxamide] was tested, and the IC50 (Human plasma kallikrein) was 2.1 nM, the IC50 (Human KLK1) was over 40000 nM and the inhibition at 40 µM (Human FXIa) was 17%.
`Nc1nn(Cc2ccc(Cn3ccccc3=O)cc2)cc1C(=O)NCc1ccc(OC(F)(F)F)cc1` [Example 58, 3-amino-1-({4-[(2-oxopyridin-1-yl)methyl]phenyl}methyl)-N-{[4-(trifluoromethoxy)phenyl]methyl}pyrazole-4-carboxamide] was tested, and the IC50 (Human plasma kallikrein) was 5780 nM, the IC50 (Human KLK1) was over 10000 nM and the “% Inhibition @ 40 μM (human FXIa)” value (Human FXIa) was 0%.
Compound `COc1cccc(CNC(=O)c2cn(Cc3ccc(Cn4ccccc4=O)cc3)nc2N(C)C)c1F` [Example 59, 3-(dimethylamino)-N-[(2-fluoro-3-methoxyphenyl)methyl]-1-({4-[(2-oxopyridin-1-yl)methyl]phenyl}methyl)pyrazole-4-carboxamide] has an IC50 (Human plasma kallikrein) of 73.4 nM, an IC50 (Human KLK1) of over 10000 nM and an inhibition at 40 µM (Human FXIa) of 0%.
`COCc1nn(Cc2ccc(Cn3ccccc3=O)cc2)cc1C(=O)NCc1ccccc1F` [Example 62, N-[(2-fluorophenyl)methyl]-3-(methoxymethyl)-1-({4-[(2-oxopyridin-1-yl)methyl]phenyl}methyl)pyrazole-4-carboxamide] showed an IC50 (Human plasma kallikrein) of 572 nM, an IC50 (Human KLK1) of over 10000 nM and an inhibition at 40 µM (Human FXIa) of 0%.
For `COCc1nn(Cc2ccc(Cn3ccccc3=O)cc2)cc1C(=O)NCc1ccccc1C(F)(F)F` [Example 63, 3-(methoxymethyl)-1-({4-[(2-oxopyridin-1-yl)methyl]phenyl}methyl)-N-{[2-(trifluoromethyl)phenyl]methyl}pyrazole-4-carboxamide], the IC50 (Human plasma kallikrein) was 342 nM, the IC50 (Human KLK1) was over 10000 nM and the inhibition at 40 µM (Human FXIa) was 0%.
`COCc1nn(Cc2ccc(Cn3ccccc3=O)cc2)cc1C(=O)NCc1cc(OC)ccc1F` [Example 64, N-[(2-fluoro-5-methoxyphenyl)methyl]-3-(methoxymethyl)-1-({4-[(2-oxopyridin-1-yl)methyl]phenyl}methyl)pyrazole-4-carboxamide] gave an IC50 (Human plasma kallikrein) of 35.2 nM, an IC50 (Human KLK1) of over 10000 nM and an inhibition at 40 µM (Human FXIa) of 0%.
Work on `COCc1nn(Cc2ccc(Cn3ccccc3=O)cc2)cc1C(=O)NCc1ccc(C)cc1F` [Example 65, N-[(2-fluoro-4-methylphenyl)methyl]-3-(methoxymethyl)-1-({4-[(2-oxopyridin-1-yl)methyl]phenyl}methyl)pyrazole-4-carboxamide] yielded an IC50 (Human plasma kallikrein) of 43.3 nM, an IC50 (Human KLK1) of over 10000 nM and an inhibition at 40 µM (Human FXIa) of 0%.
Work on `COCc1nn(Cc2ccc(Cn3ccccc3=O)cc2)cc1C(=O)NCc1c(F)cccc1C(F)F` [Example 80, N-{[2-(difluoromethyl)-6-fluorophenyl]methyl}-3-(methoxymethyl)-1-({4-[(2-oxopyridin-1-yl)methyl]phenyl}methyl)pyrazole-4-carboxamide] yielded an IC50 (Human plasma kallikrein) of 20.4 nM and an IC50 (Human KLK1) of over 40000 nM.
With `COCc1nn(Cc2ccc(Cn3ccccc3=O)cc2)cc1C(=O)NCc1c(F)ccc(OC)c1C(F)F` [Example 83, N-{[2-(difluoromethyl)-6-fluoro-3-methoxyphenyl]methyl}-3-(methoxymethyl)-1-({4-[(2-oxopyridin-1-yl)methyl]phenyl}methyl)pyrazole-4-carboxamide] the inhibition at 40 µM (Human FXIa) was 14%.
For `COCc1nn(Cc2ccc(Cn3ccccc3=O)cc2)cc1C(=O)NCc1cc(OC)ccc1C(N)=O` [Example 86, N-[(2-carbamoyl-5-methoxyphenyl)methyl]-3-(methoxymethyl)-1-({4-[(2-oxopyridin-1-yl)methyl]phenyl}methyl)pyrazole-4-carboxamide], the IC50 (Human plasma kallikrein) was 8.7 nM and the IC50 (Human KLK1) was over 40000 nM.
`COCc1nn(Cc2ccc(Cn3ccccc3=O)cc2)cc1C(=O)NCc1c(Cl)ccc(OC)c1F` [Example 99, N-[(6-chloro-2-fluoro-3-methoxyphenyl)methyl]-3-(methoxymethyl)-1-({4-[(2-oxopyridin-1-yl)methyl]phenyl}methyl)pyrazole-4-carboxamide] showed an inhibition at 40 µM (Human FXIa) of 4%.
`COCc1nn(Cc2ccc(Cn3cc(F)ccc3=O)cc2)cc1C(=O)NCc1c(F)ccc(OC)c1F` [Example 108, N-[(2,6-difluoro-3-methoxyphenyl)methyl]-1-({4-[(5-fluoro-2-oxopyridin-1-yl)methyl]phenyl}methyl)-3-(methoxymethyl)pyrazole-4-carboxamide] was tested, and the IC50 (Human plasma kallikrein) was 5.5 nM and the IC50 (Human KLK1) was over 10000 nM.
`COCc1nn(Cc2ccc(Cn3ccccc3=O)cc2)cc1C(=O)NCc1cccc(O)c1F` [Example 129, N-[(2-fluoro-3-hydroxyphenyl)methyl]-3-(methoxymethyl)-1-({4-[(2-oxopyridin-1-yl)methyl]phenyl}methyl)pyrazole-4-carboxamide] showed an IC50 (Human plasma kallikrein) of 437 nM and an inhibition at 40 µM (Human FXIa) of 0%.
